US5508437A, “Analogs of tyrosine sulfate or tyrosine phosphate containing peptides” (Hoffmann-La Roche Inc., priority 1993, dated 1996)
Where two headings read alike, the source gives them in different places. Starred links: 1 amine or outer side, 2 acyl side, 3 side chain; linkers in the order of their positions; H or OH if unused. Positions of bridges follow the written chain, without caps; N, C: chain ends. Non-standard residues stand in square brackets, D forms with d. Residues, ends and D or L forms follow the SMILES beside them. ξ: configuration not given here. *: point of attachment. Phe(4-tetrazol-5-yl) = N[C@@H](Cc1ccc(-c2nnn[nH]2)cc1)C(=O)O; Propanoyl(3-(4-HOOCCH2-Ph)) = O=C(O)Cc1ccc(CCC(=O)*)cc1; X15 = O=C([C@@H](Cc1ccc(-c2nn[nH]n2)cc1)N[*:1])[*:2]; X13 = O=C(O)C(F)(F)c1ccc(CC(N[*:1])C(=O)[*:2])cc1; X3 = CCOC(=O)Cc1ccc(C[C@@H](N[*:1])C(=O)[*:2])cc1; X5 = CCOC(=O)Cc1ccc(C[C@H](N[*:1])C(=O)[*:2])cc1; X7 = O=C(C(Cc1ccc(-c2nn[nH]n2)cc1)N[*:1])[*:2]; X8 = O=C(C(Cc1ccc(Cc2nn[nH]n2)cc1)N[*:1])[*:2]; X12 = O=C(O)Cc1cccc(CC(N[*:1])C(=O)[*:2])c1; X1 = O=C(O)Cc1ccc(CC(N[*:1])C(=O)[*:2])cc1; X14 = O=C(O)c1cccc(CC(N[*:1])C(=O)[*:2])c1; ξPhe(4-COOH) = NC(Cc1ccc(C(=O)O)cc1)C(=O)O; X16 = O=C(CCc1ccc(-c2nnn[nH]2)cc1)*; NMeF = CN[C@@H](Cc1ccccc1)C(=O)O; Nle = CCCC[C@H](N)C(=O)O

Legend:
[1] = biological target: T1, Bovine Striatum (3H-CCK-8-(SO3 H) receptor binding) (Bos taurus, UniProt P79266); assay: In vitro receptor binding assay, 3H-CCK-8-(SO3H), bovine striatum homogenate
T1 construct: tissue homogenate (striatum approximately 0.26 mg protein in 2 mL final volume); from tissue; host or cells: bovine striatum membrane homogenate
T1 sequence (P79266 1-454): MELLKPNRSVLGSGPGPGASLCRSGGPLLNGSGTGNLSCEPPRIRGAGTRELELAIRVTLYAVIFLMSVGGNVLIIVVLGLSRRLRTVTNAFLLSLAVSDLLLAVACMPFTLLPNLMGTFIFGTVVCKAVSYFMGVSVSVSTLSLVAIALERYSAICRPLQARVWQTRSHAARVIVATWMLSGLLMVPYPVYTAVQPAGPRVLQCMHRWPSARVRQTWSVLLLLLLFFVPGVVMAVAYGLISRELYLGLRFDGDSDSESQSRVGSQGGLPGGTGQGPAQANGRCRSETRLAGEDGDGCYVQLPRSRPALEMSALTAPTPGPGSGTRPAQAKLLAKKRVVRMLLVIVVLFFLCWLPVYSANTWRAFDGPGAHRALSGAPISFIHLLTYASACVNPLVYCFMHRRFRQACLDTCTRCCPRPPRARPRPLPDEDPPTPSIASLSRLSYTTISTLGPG
Protocol: (§1) Frozen bovine striatum (approx. 5 g) or fresh rat pancreas (approx. 5 g) cleaned of fat and extraneous tissue were homogenized in HEPES buffer #1 (10 mM HEPES+130 mM NaCl+5 mM MgCl2, pH 7.4) using 35 parts buffer per 1 part tissue on a wet weight/volume basis (approx. 175 mL). The tissue was homogenized 2×for approx. 15 sec. at 0° C. using a Polytron homogenizer at a setting of 6. The tissue was isolated by centrifugation at 48,000× g for 10 min at 0° C. The resulting tissue pellet was resuspended in HEPES buffer #2 (10 mM HEPES+130 mM NaCl+5 mM MgCl2 +1 mg/L phenylmethanasulfonyl fluoride (PMSF)+200 mg/L Bacitracin): 1 part striatal tissue (original wet weight) per 80 parts buffer and 1 part pancreas tissue (original wet weight) per 500 to 1000 parts buffer.
(§2) Incubation was initiated by combining various concentrations of native CCK-8 or peptides of the invention with ^3 H-CCK-8-(SO3 H) (final conc.=0.15 nM) and tissue homogenate (striatum approximately 0.26 mg protein in 2 mL final volume; pancreas approximately 0.100 mg protein in 1 mL final volume). Samples were incubated for 30 min at 25° C. and the incubation terminated by pouring the mixture onto a pre-wetted Whatman GF/B filter on a Sandbeck Vacuum Filtration Manifold. The incubation tubes were washed with 2×3 mL of ice-cold HEPES Buffer #2 and the wash filtered through the GF/B filter. The filter was air dried for 10 min and then placed in a scintillation vial with 12 mL of DuPont/NEN Aquasol scintillation cocktail. The vials were shaken overnight and then counted using a liquid scintillation spectrometer. Non-specific binding was determined in the presence of 1 micromolar native CCK-8 and subtracted from all samples to determine specific binding. The concentration of peptide necessary to inhibit 50% of total specific H-CCK-8-(SO3 H) binding (IC50 value) was determined by log-probit analysis.

[2] = biological target: T2, rat pancreas (3H-CCK-8-(SO3 H) receptor binding) (Rattus norvegicus, UniProt P30551); assay: In vitro receptor binding assay, 3H-CCK-8-(SO3H), rat pancreas homogenate
T2 construct: pancreas approximately 0.100 mg protein in 1 mL final volume; from tissue; host or cells: rat pancreas membrane homogenate
T2 sequence (P30551 1-444): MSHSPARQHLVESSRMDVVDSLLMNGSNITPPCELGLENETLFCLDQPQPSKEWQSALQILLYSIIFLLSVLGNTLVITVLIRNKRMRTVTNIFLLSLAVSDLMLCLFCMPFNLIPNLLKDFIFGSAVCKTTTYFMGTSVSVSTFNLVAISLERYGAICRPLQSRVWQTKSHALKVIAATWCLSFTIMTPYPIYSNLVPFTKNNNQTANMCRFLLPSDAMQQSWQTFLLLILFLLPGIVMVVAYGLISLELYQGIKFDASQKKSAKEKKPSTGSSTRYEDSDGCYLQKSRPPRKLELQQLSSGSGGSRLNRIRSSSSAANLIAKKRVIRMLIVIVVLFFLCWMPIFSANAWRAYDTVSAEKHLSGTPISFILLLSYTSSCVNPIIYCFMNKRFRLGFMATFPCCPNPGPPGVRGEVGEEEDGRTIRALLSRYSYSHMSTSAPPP
Protocol: as §1, §2

[3] = 3H-CCK-8-(SO3H) 0.15 nM, 30 min at 25° C., bovine striatum homogenate, read-out: Bovine Striatum IC50 (concentration to inhibit 50% of specific 3H-CCK-8-(SO3H) binding)
[4] = 3H-CCK-8-(SO3H) 0.15 nM, 30 min at 25° C., rat pancreas homogenate, read-out: Rate Pancreas IC50 (concentration to inhibit 50% of specific 3H-CCK-8-(SO3H) binding)

CSCC[C@H](NC(=O)[C@H](Cc1ccc(OS(=O)(=O)O)cc1)NC(=O)[C@@H](N)CC(=O)O)C(=O)NCC(=O)N[C@@H](Cc1c[nH]c2ccccc12)C(=O)N[C@@H](CCSC)C(=O)N[C@@H](CC(=O)O)C(=O)N[C@@H](Cc1ccccc1)C(N)=O [CCK-8, AspTyr(SO3 H)MetGlyTrpMetAspPheNH2, reference compound]
IC50 [1, 3]: 1 to 3.2 nM
IC50 [2, 4]: 1 to 4.6 nM

CSCC[C@H](NC(=O)C(Cc1cccc(C(=O)O)c1)NC(C)=O)C(=O)NCC(=O)N[C@@H](Cc1c[nH]c2ccccc12)C(=O)N[C@@H](CCSC)C(=O)N[C@@H](CC(=O)O)C(=O)N[C@@H](Cc1ccccc1)C(N)=O (stereo partly drawn) [Example 42, Ac-(D,L)Phe(3-COOH)-Met-Gly-Trp-Met-Asp-Phe-NH2] (Ac-[X14]MGWMDF-NH2)
IC50 [1, 3]: 32 nM
IC50 [2, 4]: 128 nM

CSCC[C@H](NC(=O)C(Cc1ccc(C(=O)O)cc1)NC(C)=O)C(=O)NCC(=O)N[C@@H](Cc1c[nH]c2ccccc12)C(=O)N[C@@H](CCSC)C(=O)N[C@@H](CC(=O)O)C(=O)N[C@@H](Cc1ccccc1)C(N)=O (stereo partly drawn) [Example 43, AC-(D,L)Phe(4-COOH)-Met-Gly-Trp-Met-Asp-Phe-NH2] (Ac-[ξPhe(4-COOH)]MGWMDF-NH2)
IC50 [1, 3]: 34 nM
IC50 [2, 4]: 62 nM

CSCC[C@H](NC(=O)C(Cc1ccc(CC(=O)O)cc1)NC(C)=O)C(=O)NCC(=O)N[C@@H](Cc1c[nH]c2ccccc12)C(=O)N[C@@H](CCSC)C(=O)N[C@@H](CC(=O)O)C(=O)N[C@@H](Cc1ccccc1)C(N)=O (stereo partly drawn) [Example 46, Ac-(D,L)Phe(4-CH2 COOH)-Met-Gly-Trp-Met-Asp-Phe-NH2] (Ac-[X1]MGWMDF-NH2)
IC50 [1, 3]: 47 nM
IC50 [2, 4]: 3.6 nM

CCOC(=O)Cc1ccc(C[C@@H](NC(C)=O)C(=O)N[C@@H](CCSC)C(=O)NCC(=O)N[C@@H](Cc2c[nH]c3ccccc23)C(=O)N[C@@H](CCSC)C(=O)N[C@@H](CC(=O)OCC)C(=O)N[C@@H](Cc2ccccc2)C(N)=O)cc1 [Example 49, Ac-(D)Phe(4-CH2 COOC2 H5)-Met-Gly-Trp-Met-Asp(COOC2H5)-Phe-NH2] (Ac-[X3]MGWMD(OEt)F-NH2)
IC50 [1, 3]: 10000 nM
IC50 [2, 4]: 1000 nM

CCOC(=O)Cc1ccc(C[C@H](NC(C)=O)C(=O)N[C@@H](CCSC)C(=O)NCC(=O)N[C@@H](Cc2c[nH]c3ccccc23)C(=O)N[C@@H](CCSC)C(=O)N[C@@H](CC(=O)OCC)C(=O)N[C@@H](Cc2ccccc2)C(N)=O)cc1 [Example 50, Ac-Phe(4-CH2 COOC2 H5)-Met-Gly-Trp-Met-Asp-(COOC2 H5)-Phe-NH2] (Ac-[X5]MGWMD(OEt)F-NH2)
IC50 [1, 3]: 10000 nM
IC50 [2, 4]: 3600 nM

CSCC[C@H](NC(=O)C(Cc1ccc(C(F)(F)C(=O)O)cc1)NC(C)=O)C(=O)NCC(=O)N[C@@H](Cc1c[nH]c2ccccc12)C(=O)N[C@@H](CCSC)C(=O)N[C@@H](CC(=O)O)C(=O)N[C@@H](Cc1ccccc1)C(N)=O (stereo partly drawn) [Example 52, Ac-(D,L)Phe(4-CF2 COOH)-Met-Gly-Trp-Met-Asp-Phe-NH2] (Ac-[X13]MGWMDF-NH2)
IC50 [1]: 66 nM
IC50 [2]: 81 nM

CSCC[C@H](NC(=O)C(Cc1ccc(-c2nn[nH]n2)cc1)NC(C)=O)C(=O)NCC(=O)N[C@@H](Cc1c[nH]c2ccccc12)C(=O)N[C@@H](CCSC)C(=O)N[C@@H](CC(=O)O)C(=O)N[C@@H](Cc1ccccc1)C(N)=O (stereo partly drawn) [Example 53, Ac-(D,L)Phe(4-tetrazole)-Met-Gly-Trp-Met-Asp-Phe-NH2] (Ac-[X7]MGWMDF-NH2)
IC50 [1, 3]: 1.6 nM
IC50 [2, 4]: 22 nM

CSCC[C@H](NC(=O)[C@H](Cc1c[nH]c2ccccc12)NC(=O)CNC(=O)[C@H](CCSC)NC(=O)[C@@H](Cc1ccc(-c2nn[nH]n2)cc1)NC(C)=O)C(=O)N[C@@H](CC(=O)O)C(=O)N[C@@H](Cc1ccccc1)C(N)=O [Example 54, Ac-(D)Phe(4-tetrazole)-Met-Gly-Trp-Met-Asp-Phe-NH2] (Ac-[X15]MGWMDF-NH2)
IC50 [1, 3]: 50 nM

CSCC[C@H](NC(=O)[C@H](Cc1ccc(-c2nnn[nH]2)cc1)NC(C)=O)C(=O)NCC(=O)N[C@@H](Cc1c[nH]c2ccccc12)C(=O)N[C@@H](CCSC)C(=O)N[C@@H](CC(=O)O)C(=O)N[C@@H](Cc1ccccc1)C(N)=O [Example 55, AcPhe(4-tetrazole)MetGlyTrpMetAspPheNH2] (Ac-[Phe(4-tetrazol-5-yl)]MGWMDF-NH2)
IC50 [1, 3]: 0.51 nM

CSCC[C@@H]1NC(=O)[C@H](Cc2c[nH]c3ccccc23)NC(=O)CNC(=O)[C@@H](NC(=O)C(Cc2ccc(CC(=O)O)cc2)NC(C)=O)CCCCNC(=O)C[C@@H](C(=O)N(C)[C@@H](Cc2ccccc2)C(N)=O)NC1=O (stereo partly drawn) [Example 56, Ac-(D,L)Phe(4-CH2 COOH)-Lys-Gly-Trp-Met-Asp-N-methyl-Phe-NH2] (Ac-[X1]KGWMD[NMeF]-NH2; lactam 2-6)
IC50 [1, 3]: 10000 nM
IC50 [2, 4]: 4650 nM

CSCC[C@H](NC(=O)C(Cc1cccc(CC(=O)O)c1)NC(C)=O)C(=O)NCC(=O)N[C@@H](Cc1c[nH]c2ccccc12)C(=O)N[C@@H](CCSC)C(=O)N[C@@H](CC(=O)O)C(=O)N[C@@H](Cc1ccccc1)C(N)=O (stereo partly drawn) [Example 58, Ac-(D,L)Phe-(3-CH2 COOH)-Met-Gly-Trp-Met-Asp-Phe-NH2] (Ac-[X12]MGWMDF-NH2)
IC50 [1, 3]: 53 nM
IC50 [2, 4]: 23 nM

CSCC[C@H](NC(=O)CCc1ccc(CC(=O)O)cc1)C(=O)NCC(=O)N[C@@H](Cc1c[nH]c2ccccc12)C(=O)N[C@@H](CCSC)C(=O)N[C@@H](CC(=O)O)C(=O)N[C@@H](Cc1ccccc1)C(N)=O [Example 59, Desamino Phe(4-CH2 -COOH)-Met-Gly-Trp-Met-Asp-Phe-NH2] ({Propanoyl(3-(4-HOOCCH2-Ph))}-MGWMDF-NH2)
IC50 [2, 4]: 57 nM

CSCC[C@H](NC(=O)C(Cc1ccc(Cc2nn[nH]n2)cc1)NC(C)=O)C(=O)NCC(=O)N[C@@H](Cc1c[nH]c2ccccc12)C(=O)N[C@@H](CCSC)C(=O)N[C@@H](CC(=O)O)C(=O)N[C@@H](Cc1ccccc1)C(N)=O (stereo partly drawn) [Example 60, Ac-(D,L)Phe(4-CH2 tetrazole)-Met-Gly-Trp-Met-Asp-Phe-NH2] (Ac-[X8]MGWMDF-NH2)
IC50 [1, 3]: 340 nM
IC50 [2, 4]: 730 nM

CCCC[C@H](NC(=O)C(Cc1ccc(Cc2nn[nH]n2)cc1)NC(C)=O)C(=O)NCC(=O)N[C@@H](Cc1c[nH]c2ccccc12)C(=O)N[C@@H](CCCC)C(=O)N[C@@H](CC(=O)O)C(=O)N(C)[C@@H](Cc1ccccc1)C(N)=O (stereo partly drawn) [Example 63, Ac-(D,L)Phe(4-CH2 -tetrazole)-Nle-Gly-Trp-Nle-Asp-N-methyl-Phe-NH2] (Ac-[X8][Nle]GW[Nle]D[NMeF]-NH2)
IC50 [1, 3]: 260 nM
IC50 [2, 4]: 640 nM

CSCC[C@H](NC(=O)CCc1ccc(-c2nnn[nH]2)cc1)C(=O)NCC(=O)N[C@@H](Cc1c[nH]c2ccccc12)C(=O)N[C@@H](CCSC)C(=O)N[C@@H](CC(=O)O)C(=O)N[C@@H](Cc1ccccc1)C(N)=O [Example 67, Desamino-Phe(4-tetrazole)-Met-Gly-Trp-Met-Asp-Phe-NH2] (X16-MGWMDF-NH2)
IC50 [1, 3]: 5.1 nM
